Measured values published in patent publication US8192962B2, “Processes for detecting toxic substances” (Daikin Industries, Ltd., priority 2001, dated 2012).

System: Metabolism protein genes
Assay: DNA chip mRNA expression in yeast, metabolism protein genes (Table 7)
Type: cell-based, Saccharomyces cerevisiae S288C
How it was run: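 Expression change after 2 h toxicant exposure (growth-inhibiting, sub-lethal) of log-phase S. cerevisiae S288C at 25° C. Oligo-dT-purified mRNA was labeled with Cy3-dUTP or Cy5-dUTP and hybridized >12 h at 65° C. to a genome-wide chip; ratio of scanned fluorescence to control.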

## O=[N+]([O-])c1cc[n+]([O-])c2ccccc12 [(5), 4-nitroquinolin-N-oxide]
Yeast gene YAL012W
  The level of expressed mRNA in the presence of chemical substance/The level of expressed mRNA in the absence of chemical substance: 0.6
Yeast gene YAL038W
  The level of expressed mRNA in the presence of chemical substance/The level of expressed mRNA in the absence of chemical substance: 1.4
Yeast gene YAR071W
  The level of expressed mRNA in the presence of chemical substance/The level of expressed mRNA in the absence of chemical substance: 1.6
Yeast gene YBR003W
  level of expressed mRNA in the presence/in the absence of chemical substance: 0.7
Yeast gene YBR011C
  level of expressed mRNA in the presence/in the absence of chemical substance: 0.9
Yeast gene YBR020W
  level of expressed mRNA in the presence/in the absence of chemical substance: 1.0
Yeast gene YBR023C
  The level of expressed mRNA in the presence of chemical substance/The level of expressed mRNA in the absence of chemical substance: 0.8
Yeast gene YBR029C
  The level of expressed mRNA in the presence of chemical substance/The level of expressed mRNA in the absence of chemical substance: 1.4
Yeast gene YBR183W
  The level of expressed mRNA in the presence of chemical substance/The level of expressed mRNA in the absence of chemical substance: 0.9
Yeast gene YBR222C
  The level of expressed mRNA in the presence of chemical substance/The level of expressed mRNA in the absence of chemical substance: 0.7
Yeast gene YBR256C
  The level of expressed mRNA in the presence of chemical substance/The level of expressed mRNA in the absence of chemical substance: 1.6
Yeast gene YBR299W
  The level of expressed mRNA in the presence of chemical substance/The level of expressed mRNA in the absence of chemical substance: 1.6
Yeast gene YCL009C
  The level of expressed mRNA in the presence of chemical substance/The level of expressed mRNA in the absence of chemical substance: 0.7
Yeast gene YCL064C
  The level of expressed mRNA in the presence of chemical substance/The level of expressed mRNA in the absence of chemical substance: 1.4
Yeast gene YCR010C
  level of expressed mRNA in the presence/in the absence of chemical substance: 1.7
Yeast gene YCR034W
  level of expressed mRNA in the presence/in the absence of chemical substance: 0.9
Yeast gene YCR048W
  The level of expressed mRNA in the presence of chemical substance/The level of expressed mRNA in the absence of chemical substance: 0.9
Yeast gene YCR098C
  The level of expressed mRNA in the presence of chemical substance/The level of expressed mRNA in the absence of chemical substance: 1.4
Yeast gene YDR019C
  The level of expressed mRNA in the presence of chemical substance/The level of expressed mRNA in the absence of chemical substance: 0.9
Yeast gene YDR050C
  level of expressed mRNA in the presence/in the absence of chemical substance: 0.9
Yeast gene YDR073W
  level of expressed mRNA in the presence/in the absence of chemical substance: 1.2
Yeast gene YDR123C
  level of expressed mRNA in the presence/in the absence of chemical substance: 1.6
Yeast gene YDR178W
  level of expressed mRNA in the presence/in the absence of chemical substance: 0.9
Yeast gene YDR277C
  level of expressed mRNA in the presence/in the absence of chemical substance: 0.8
Yeast gene YDR284C
  level of expressed mRNA in the presence/in the absence of chemical substance: 0.8
Yeast gene YDR345C
  level of expressed mRNA in the presence/in the absence of chemical substance: 1.3
Yeast gene YDR380W
  The level of expressed mRNA in the presence of chemical substance/The level of expressed mRNA in the absence of chemical substance: 1.1
Yeast gene YDR400W
  level of expressed mRNA in the presence/in the absence of chemical substance: 1.0
Yeast gene YDR408C
  level of expressed mRNA in the presence/in the absence of chemical substance: 0.9
Yeast gene YDR483W
  level of expressed mRNA in the presence/in the absence of chemical substance: 0.7
Yeast gene YDR497C
  The level of expressed mRNA in the presence of chemical substance/The level of expressed mRNA in the absence of chemical substance: 0.7
Yeast gene YDR502C
  The level of expressed mRNA in the presence of chemical substance/The level of expressed mRNA in the absence of chemical substance: 1.5
Yeast gene YDR516C
  The level of expressed mRNA in the presence of chemical substance/The level of expressed mRNA in the absence of chemical substance: 1.3
Yeast gene YEL063C
  level of expressed mRNA in the presence/in the absence of chemical substance: 1.2
Yeast gene YER015W
  level of expressed mRNA in the presence/in the absence of chemical substance: 1.3
Yeast gene YER026C
  The level of expressed mRNA in the presence of chemical substance/The level of expressed mRNA in the absence of chemical substance: 1.2
Yeast gene YER053C
  The level of expressed mRNA in the presence of chemical substance/The level of expressed mRNA in the absence of chemical substance: 0.6
Yeast gene YER069W
  The level of expressed mRNA in the presence of chemical substance/The level of expressed mRNA in the absence of chemical substance: 1.5
Yeast gene YER081W
  level of expressed mRNA in the presence/in the absence of chemical substance: 1.1
Yeast gene YER096W
  The level of expressed mRNA in the presence of chemical substance/The level of expressed mRNA in the absence of chemical substance: 1.3
Yeast gene YER120W
  level of expressed mRNA in the presence/in the absence of chemical substance: 0.8
Yeast gene YER178W
  The level of expressed mRNA in the presence of chemical substance/The level of expressed mRNA in the absence of chemical substance: 0.7
Yeast gene YFL011W
  level of expressed mRNA in the presence/in the absence of chemical substance: 1.3
Yeast gene YFL014W
  The level of expressed mRNA in the presence of chemical substance/The level of expressed mRNA in the absence of chemical substance: 1.0
Yeast gene YFL030W
  The level of expressed mRNA in the presence of chemical substance/The level of expressed mRNA in the absence of chemical substance: 1.1
Yeast gene YFL031W
  The level of expressed mRNA in the presence of chemical substance/The level of expressed mRNA in the absence of chemical substance: 1.0
Yeast gene YFL056C
  The level of expressed mRNA in the presence of chemical substance/The level of expressed mRNA in the absence of chemical substance: 0.9
Yeast gene YFL057C
  The level of expressed mRNA in the presence of chemical substance/The level of expressed mRNA in the absence of chemical substance: 0.9
Yeast gene YFR047C
  The level of expressed mRNA in the presence of chemical substance/The level of expressed mRNA in the absence of chemical substance: 1.2
Yeast gene YGL012W
  level of expressed mRNA in the presence/in the absence of chemical substance: 1.5
Yeast gene YGL022W
  The level of expressed mRNA in the presence of chemical substance/The level of expressed mRNA in the absence of chemical substance: 1.0
Yeast gene YGL115W
  level of expressed mRNA in the presence/in the absence of chemical substance: 1.2
Yeast gene YGL126W
  The level of expressed mRNA in the presence of chemical substance/The level of expressed mRNA in the absence of chemical substance: 1.1
Yeast gene YGL205W
  level of expressed mRNA in the presence/in the absence of chemical substance: 1.1
Yeast gene YGL209W
  The level of expressed mRNA in the presence of chemical substance/The level of expressed mRNA in the absence of chemical substance: 0.7
Yeast gene YGL248W
  The level of expressed mRNA in the presence of chemical substance/The level of expressed mRNA in the absence of chemical substance: 1.3
Yeast gene YGR037C
  The level of expressed mRNA in the presence of chemical substance/The level of expressed mRNA in the absence of chemical substance: 1.0
Yeast gene YGR055W
  The level of expressed mRNA in the presence of chemical substance/The level of expressed mRNA in the absence of chemical substance: 1.3
Yeast gene YGR096W
  level of expressed mRNA in the presence/in the absence of chemical substance: 1.2
Yeast gene YGR191W
  level of expressed mRNA in the presence/in the absence of chemical substance: 0.8
Yeast gene YGR194C
  The level of expressed mRNA in the presence of chemical substance/The level of expressed mRNA in the absence of chemical substance: 0.8
Yeast gene YGR204W
  level of expressed mRNA in the presence/in the absence of chemical substance: 0.6
Yeast gene YGR256W
  The level of expressed mRNA in the presence of chemical substance/The level of expressed mRNA in the absence of chemical substance: 0.9
Yeast gene YGR282C
  The level of expressed mRNA in the presence of chemical substance/The level of expressed mRNA in the absence of chemical substance: 1.0
Yeast gene YGR288W
  level of expressed mRNA in the presence/in the absence of chemical substance: 0.8
Yeast gene YHR025W
  level of expressed mRNA in the presence/in the absence of chemical substance: 0.9
Yeast gene YHR111W
  The level of expressed mRNA in the presence of chemical substance/The level of expressed mRNA in the absence of chemical substance: 1.5
Yeast gene YHR137W
  The level of expressed mRNA in the presence of chemical substance/The level of expressed mRNA in the absence of chemical substance: 1.0
Yeast gene YHR174W
  The level of expressed mRNA in the presence of chemical substance/The level of expressed mRNA in the absence of chemical substance: 1.3
Yeast gene YHR176W
  The level of expressed mRNA in the presence of chemical substance/The level of expressed mRNA in the absence of chemical substance: 1.0
Yeast gene YHR210C
  level of expressed mRNA in the presence/in the absence of chemical substance: 1.8
Yeast gene YIL006W
  level of expressed mRNA in the presence/in the absence of chemical substance: 0.8
Yeast gene YIL045W
  The level of expressed mRNA in the presence of chemical substance/The level of expressed mRNA in the absence of chemical substance: 1.3
Yeast gene YIL107C
  The level of expressed mRNA in the presence of chemical substance/The level of expressed mRNA in the absence of chemical substance: 0.8
Yeast gene YIL154C
  The level of expressed mRNA in the presence of chemical substance/The level of expressed mRNA in the absence of chemical substance: 0.9
Yeast gene YIL155C
  The level of expressed mRNA in the presence of chemical substance/The level of expressed mRNA in the absence of chemical substance: 1.3
Yeast gene YIL167W
  The level of expressed mRNA in the presence of chemical substance/The level of expressed mRNA in the absence of chemical substance: 1.0
Yeast gene YIR031C
  The level of expressed mRNA in the presence of chemical substance/The level of expressed mRNA in the absence of chemical substance: 1.6
Yeast gene YIR034C
  The level of expressed mRNA in the presence of chemical substance/The level of expressed mRNA in the absence of chemical substance: 1.1
Yeast gene YIR036C
  The level of expressed mRNA in the presence of chemical substance/The level of expressed mRNA in the absence of chemical substance: 0.9
Yeast gene YJL031C
  The level of expressed mRNA in the presence of chemical substance/The level of expressed mRNA in the absence of chemical substance: 1.7
Yeast gene YJL068C
  The level of expressed mRNA in the presence of chemical substance/The level of expressed mRNA in the absence of chemical substance: 0.7
Yeast gene YJL088W
  The level of expressed mRNA in the presence of chemical substance/The level of expressed mRNA in the absence of chemical substance: 0.9
Yeast gene YJL099W
  The level of expressed mRNA in the presence of chemical substance/The level of expressed mRNA in the absence of chemical substance: 1.9
Yeast gene YJL121C
  level of expressed mRNA in the presence/in the absence of chemical substance: 1.0
Yeast gene YJL167W
  level of expressed mRNA in the presence/in the absence of chemical substance: 0.7
Yeast gene YJL172W
  The level of expressed mRNA in the presence of chemical substance/The level of expressed mRNA in the absence of chemical substance: 0.9
Yeast gene YJL216C
  level of expressed mRNA in the presence/in the absence of chemical substance: 0.8
Yeast gene YJL219W
  The level of expressed mRNA in the presence of chemical substance/The level of expressed mRNA in the absence of chemical substance: 1.2
Yeast gene YJR077C
  level of expressed mRNA in the presence/in the absence of chemical substance: 0.9
Yeast gene YJR137C
  The level of expressed mRNA in the presence of chemical substance/The level of expressed mRNA in the absence of chemical substance: 0.6
Yeast gene YJR143C
  level of expressed mRNA in the presence/in the absence of chemical substance: 1.6
